Measured values: patent US10023565B2, “N,N′ substituted piperidinamine compounds, and preparation method and usage thereof” (Institute of Pharmacology and Toxicology Academy of …, priority 2013, dated 2018)
pKd: −log10 of the molar value.

Legend:
Hsp70 = target: T1, Hsp70 (Homo sapiens, UniProt P0DMV8); assay: Measurement of affinity between compounds and Hsp70 (SPR, BIACORE T100); format: binding; details: for pKd: steady state model, 25° C., read-out: KD (binding constant between the compounds and Hsp70)
T1 construct: purchased Enzo Life Sciences ADI-ESP-550-D
T1 sequence (P0DMV8 whole entry): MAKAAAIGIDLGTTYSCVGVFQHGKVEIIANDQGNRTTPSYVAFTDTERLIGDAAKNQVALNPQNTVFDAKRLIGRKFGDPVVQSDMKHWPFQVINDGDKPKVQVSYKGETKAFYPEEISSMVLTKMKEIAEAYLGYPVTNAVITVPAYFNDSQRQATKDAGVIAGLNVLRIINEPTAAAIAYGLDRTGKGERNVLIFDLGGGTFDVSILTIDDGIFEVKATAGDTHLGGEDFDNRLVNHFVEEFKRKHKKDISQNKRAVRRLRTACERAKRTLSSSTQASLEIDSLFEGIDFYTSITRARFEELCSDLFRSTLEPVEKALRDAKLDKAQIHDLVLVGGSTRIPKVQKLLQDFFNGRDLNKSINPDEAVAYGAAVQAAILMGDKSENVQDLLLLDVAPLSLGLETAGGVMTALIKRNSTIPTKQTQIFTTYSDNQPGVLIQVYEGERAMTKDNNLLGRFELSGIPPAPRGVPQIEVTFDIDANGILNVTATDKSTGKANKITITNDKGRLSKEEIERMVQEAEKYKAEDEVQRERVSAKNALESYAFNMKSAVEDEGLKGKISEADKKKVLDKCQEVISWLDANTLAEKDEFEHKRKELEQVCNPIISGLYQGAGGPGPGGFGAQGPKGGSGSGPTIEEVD
Experimental: Instrument for measuring the affinity between Example compounds and Hsp70 is BIACORE T100 Biomolecular Interaction Analysis (GE, USA), and the positive control drug is VER-155008 that is well-recognized as Hsp70 inhibitor now, and, on the basis of the measured results, according to binding characteristics between the compounds and protein, the binding constant (equilibrium dissociation constant KD) between drugs and protein is calculated by selecting steady state model with the formula: Conc*Rmax/[conc+KD]+offset.
1. Instrument: BIACORE T100 Biomolecular Interaction Analysis (GE, USA)
2. Reagents: PBS Buffer (×10), P20, CM5 chip (GE, USA), Hsp70 (human, ADI-ESP-550-D), manufactured by Enzo Life Sciences.
30 mM mother liquor of the compound was formulated with DMSO, which was diluted to 2 mM application solution with DMSO before use. 5 μl of the application solution was taken and diluted with 95 μl 1.05×PBS to 100 μM, and then diluted in turn with PBS containing 5% DMSO to […]. PBS containing 5% DMSO was used as solvent control.
Hsp70 protein was diluted with 10 mmol/L sodium acetate buffer solution (pH 5.0) to 30 μg/ml, and coupled directly on a hydrophilic carboxylmethyl dextran matrix sensor chip M5 through normalized primary amine coupling reaction, RU=11209, and then the chip was balanced for 1-2 h with PBS Buffer at […].
At a flow rate of […], with PBS containing 5% DMSO as mobile phase, at 25° C., the compound was introduced in the sequence of 0.003, 0.01, 0.03, 0.1, 0.3, 1, 3 and 10 μM, with binding time of 90 seconds, and dissociation time of 120 seconds.
According to binding characteristics between the compounds and protein, the binding constant (equilibrium dissociation constant KD) between drugs and protein was calculated by selecting steady state model with the formula: Conc*Rmax/[conc+KD]+offset.

BT474 = assay: Antitumor bioactivity evaluation, breast cancer cells (ATPlite); format: cell-based; details: Homo sapiens, BT-474; test sample 5 μM, 72 hours; read-out: Inhibitory Rate % BT474
Procedure, shortened: (§1)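 ATPlite luminescence read-out after 72 h exposure at 37 °C; cell survival expressed as % of solvent-matched control RLU. Compound tested at 5 μM final, with or without 1 μM lapatinib, on cells plated 24 h earlier at 5000 per well.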

MDA-MB-361 = assay: as above; format: cell-based; details: Homo sapiens, test sample 5 μM, 72 hours, read-out: Inhibitory Rate % MDA-MB-361
Procedure, shortened: as §1

MDA-MB-453 = assay: as above; format: cell-based; details: Homo sapiens, test sample 5 μM, 72 hours, read-out: Inhibitory Rate % MDA-MB-453
Procedure, shortened: as §1

SK-BR3 = assay: as above; format: cell-based; details: Homo sapiens, SK-BR-3; test sample 5 μM, 72 hours; read-out: Inhibitory Rate % SK-BR3
Procedure, shortened: as §1

SK/Lap^R1.0 = assay: as above; format: cell-based; details: Homo sapiens; test sample 5 μM, 72 hours; read-out: Inhibitory Rate % SKLap^R1.0
Procedure, shortened: as §1

BT/Lap^R1.0 = assay: as above; format: cell-based, human; details: Homo sapiens; test sample 5 μM, 72 hours; read-out: Inhibitory Rate % BT/Lap^R1.0
Procedure, shortened: as §1

pKd (Hsp70) | Compound | KD compared with positive control drug VER-155008 (Hsp70) | inhibition at 5 µM (BT474) [%] | inhibition at 5 µM (MDA-MB-361) [%] | inhibition at 5 µM (MDA-MB-453) [%] | inhibition at 5 µM (SK-BR3) [%] | inhibition at 5 µM (SK/Lap^R1.0) [%] | inhibition at 5 µM (BT/Lap^R1.0) [%]
6.61 | CN(Cc1ccccc1C#N)C1CCN(Cc2cnc(Cl)s2)CC1 [Example 14, N-methyl-N-(2-cyanobenzyl)-N-{1-[(2-chlorothiazol-5-yl)methyl]piperidin-4-yl}amine] | KD values equivalent to that of the positive control drug VER-155008 | -4.1 | -8.5 | 8.2 | 7.3 | 4.2 | 4
6.69 | CSc1nccc(N2CCC(N(C)Cc3ccc(F)cc3)CC2)n1 [Example 35, N-methyl-N-(4-fluorobenzyl)-N-[1-(2-methylthiopyrimidin-4-yl)piperidin-4-yl]amine] | KD values equivalent to that of the positive control drug VER-155008 | 40.5 | 46 | 82.3 | 31.5 | 30.9 | 44.7
6.55 | COc1nccc(N2CCC(N(C)Cc3ccc(F)cc3)CC2)n1 [Example 57, N-methyl-N-(4-fluorobenzyl)-N-[1-(2-methoxypyrimidin-4-yl)piperidin-4-yl]amine] | KD values equivalent to that of the positive control drug VER-155008 | 12.5 | 12.8 | 40.4 | 14.4 | 9 | 14.6
